Source: paper PMC11053857, “Synthesis, In Vitro Biological Evaluation and Molecular Modeling of Benzimidazole-Based Pyrrole/Piperidine Hybrids Derivatives as Potential Anti-Alzheimer Agents” (Pharmaceuticals, 2024)
Where two headings read alike, the source gives them in different places.

How the values were obtained:
[1] = target: acetylcholinesterase (AChE) (Homo sapiens, UniProt P22303); test: biochemical
Procedure: The enzyme inhibition activities for acetylcholinesterase and butyrylcholinesterase were determined using the method of Ellman et al. with slight modifications. The 62.0 mM sodium phosphate buffer (pH 8.0, 880 μL) used contained 0.002 M of DTNB (5,5′-dithiobis-2-nitrobenzoic acid). AChE and BuChE solutions (40 μL) were added with the test compounds (40 μL) and kept at 25 °C for 10–15 min. The acetylthiocholine or butyrylthiocholine (40 μL) were added just before the initiation of the catalytic reaction. […] The inhibition reactions were repeated in triplicate with a Shimadzu spectrophotometer (Kyoto, Japan).

[2] = target: butyrylcholinesterase (BuChE) (Homo sapiens, UniProt P06276); test: biochemical; conditions: in vitro, 25 °C, pH 8.0, triplicate, standards listed separately for series 1–13 and 14–26
butyrylcholinesterase (BuChE), sequence (P06276 29-602): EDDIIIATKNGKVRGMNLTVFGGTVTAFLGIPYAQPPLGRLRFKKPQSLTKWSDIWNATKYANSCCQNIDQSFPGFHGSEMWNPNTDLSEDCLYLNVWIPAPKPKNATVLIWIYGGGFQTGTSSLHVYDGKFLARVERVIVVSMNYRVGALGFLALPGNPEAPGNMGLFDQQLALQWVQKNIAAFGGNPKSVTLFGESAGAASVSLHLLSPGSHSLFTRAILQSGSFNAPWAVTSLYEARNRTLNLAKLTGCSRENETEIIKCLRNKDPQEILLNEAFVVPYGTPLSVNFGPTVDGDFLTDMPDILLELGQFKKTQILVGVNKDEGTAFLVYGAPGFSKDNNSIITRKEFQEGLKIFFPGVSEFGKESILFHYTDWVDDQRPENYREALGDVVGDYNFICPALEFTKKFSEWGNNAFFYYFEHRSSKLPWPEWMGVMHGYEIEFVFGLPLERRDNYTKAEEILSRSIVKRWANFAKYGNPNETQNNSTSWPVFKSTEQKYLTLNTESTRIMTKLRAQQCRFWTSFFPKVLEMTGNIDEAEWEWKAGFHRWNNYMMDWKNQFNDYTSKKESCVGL
Procedure: The enzyme inhibition activities for acetylcholinesterase and butyrylcholinesterase were determined using the method of Ellman et al. with slight modifications. The 62.0 mM sodium phosphate buffer (pH 8.0, 880 μL) used contained 0.002 M of DTNB (5,5′-dithiobis-2-nitrobenzoic acid). AChE and BuChE solutions (40 μL) were added with the test compounds (40 μL) and kept at 25 °C for 10–15 min. The acetylthiocholine or butyrylthiocholine (40 μL) were added just before the initiation of the catalytic reaction. The enzymatic hydrolysis of the substrates encompassing the formation of yellow 5-thio-2-nitrobenzoate anion products was monitored at 412 nm (15 min). The inhibition reactions were repeated in triplicate with a Shimadzu spectrophotometer (Kyoto, Japan).

[3] = in vitro, 25 °C, pH 8.0, triplicate, standards listed separately for series 1–13 and 14–26, read-out: AChE Inhibition IC50 ± SEM
[4] = read-out: BuChE Inhibition IC50 ± SEM

acetylcholinesterase (AChE), sequence (P22303 32-614, species assumed): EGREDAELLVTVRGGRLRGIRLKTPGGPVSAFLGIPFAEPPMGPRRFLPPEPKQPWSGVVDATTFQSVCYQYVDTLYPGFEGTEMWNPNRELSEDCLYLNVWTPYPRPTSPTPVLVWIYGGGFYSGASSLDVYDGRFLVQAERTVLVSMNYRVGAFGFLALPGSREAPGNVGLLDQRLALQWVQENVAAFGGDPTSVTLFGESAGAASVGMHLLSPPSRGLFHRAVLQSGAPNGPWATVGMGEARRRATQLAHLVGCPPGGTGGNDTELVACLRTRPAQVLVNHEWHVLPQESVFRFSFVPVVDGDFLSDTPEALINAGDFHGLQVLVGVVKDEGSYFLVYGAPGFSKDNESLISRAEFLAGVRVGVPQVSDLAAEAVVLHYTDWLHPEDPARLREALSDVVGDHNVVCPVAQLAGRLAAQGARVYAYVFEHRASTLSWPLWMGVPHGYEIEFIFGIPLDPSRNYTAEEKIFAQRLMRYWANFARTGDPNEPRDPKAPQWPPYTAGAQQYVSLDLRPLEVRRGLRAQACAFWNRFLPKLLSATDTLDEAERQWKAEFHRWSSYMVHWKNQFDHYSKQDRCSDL

| SMILES | IC50 [1, 3] | IC50 [2, 4] | IC50 [1] | IC50 ([2]; BuChE Inhibition IC50 ± SEM) |
| --- | --- | --- | --- | --- |
| COc1ccc2[nH]c(SC/C(=N/N=C/c3cc[nH]c3)c3ccc(C)cc3)nc2c1 [Compound 1, 2-(((E)-2-(((E)-(1H-pyrrol-3-yl)methylene)hydrazono)-2-(p-tolyl)ethyl)thio)-5-methoxy-1H-benzo[d]imidazole] | 27.11 ± 0.02 µM | 31.03 ± 0.11 µM | – | – |
| COc1ccc(/C(CSc2nc3cc(OC)ccc3[nH]2)=N\N=C\c2cc[nH]c2)cc1 [Compound 2, 2-(((E)-2-(((E)-(1H-pyrrol-3-yl)methylene)hydrazono)-2-(4-methoxyphenyl)ethyl)thio)-5-methoxy-1H-benzo[d]imidazole] | 20.04 ± 0.15 µM | 23.22 ± 0.15 µM | – | – |
| COc1ccc2[nH]c(SC/C(=N/N=C/c3cc[nH]c3)c3ccc(-c4ccccc4)cc3)nc2c1 [Compound 3, 2-(((E)-2-(((E)-(1H-pyrrol-3-yl)methylene)hydrazono)-2-([1,1′-biphenyl]-4-yl)ethyl)thio)-5-methoxy-1H-benzo[d]imidazole] | 30.11 ± 0.23 µM | 34.06 ± 0.14 µM | – | – |
| COc1ccc2[nH]c(SC/C(=N/N=C/c3cc[nH]c3)c3ccccc3OC)nc2c1 [Compound 4, 2-(((E)-2-(((E)-(1H-pyrrol-3-yl)methylene)hydrazono)-2-(2-methoxyphenyl)ethyl)thio)-5-methoxy-1H-benzo[d]imidazole] | 26.2 ± 0.41 µM | 29.2 ± 0.8 µM | – | – |
| C(=N\N=C(\CSc1nc2ccccc2[nH]1)c1ccc(-c2ccccc2)cc1)/c1cc[nH]c1 [Compound 5, 2-(((E)-2-(((E)-(1H-pyrrol-3-yl)methylene)hydrazono)-2-([1,1′-biphenyl]-4-yl)ethyl)thio)-1H-benzo[d]imidazole] | 34.16 ± 0.03 µM | 37.21 ± 0.23 µM | – | – |
| O=[N+]([O-])c1cccc(/C(CSc2nc3ccccc3[nH]2)=N\N=C\c2cc[nH]c2)c1 [Compound 6, 2-(((E)-2-(((E)-(1H-pyrrol-3-yl)methylene)hydrazono)-2-(3-nitrophenyl)ethyl)thio)-1H-benzo[d]imidazole] | 28.12 ± 0.09 µM | 32.14 ± 0.21 µM | – | – |
| Cc1ccc(/C(CSc2nc3ccccc3[nH]2)=N\N=C\c2cc[nH]c2)cc1 [Compound 7, 2-(((E)-2-(((E)-(1H-pyrrol-3-yl)methylene)hydrazono)-2-(p-tolyl)ethyl)thio)-1H-benzo[d]imidazole] | 36 ± 0.41 µM | 39.55 ± 0.03 µM | – | – |
| COc1ccccc1/C(CSc1nc2ccccc2[nH]1)=N\N=C\c1cc[nH]c1 [Compound 8, 2-(((E)-2-(((E)-(1H-pyrrol-3-yl)methylene)hydrazono)-2-(2-methoxyphenyl)ethyl)thio)-1H-benzo[d]imidazole] | 21.03 ± 0.11 µM | 25.1 ± 0.44 µM | – | – |
| COc1ccc(/C(CSc2nc3ccccc3[nH]2)=N\N=C\c2cc[nH]c2)cc1 [Compound 9, 2-(((E)-2-(((E)-(1H-pyrrol-3-yl)methylene)hydrazono)-2-(4-methoxyphenyl)ethyl)thio)-1H-benzo[d]imidazole] | 24.16 ± 0.21 µM | 28.01 ± 0.13 µM | – | – |
| O=[N+]([O-])c1cccc(/C(CSc2nc3cc([N+](=O)[O-])ccc3[nH]2)=N\N=C\c2cc[nH]c2)c1 [Compound 10, 2-(((E)-2-(((E)-(1H-pyrrol-3-yl)methylene)hydrazono)-2-(3-nitrophenyl)ethyl)thio)-5-nitro-1H-benzo[d]imidazole] | – | – | 19.4 ± 0.6 µM | 21.6 ± 0.61 µM |
| O=[N+]([O-])c1ccc2[nH]c(SC/C(=N/N=C/c3cc[nH]c3)c3ccc(-c4ccccc4)cc3)nc2c1 [Compound 11, 2-(((E)-2-(((E)-(1H-pyrrol-3-yl)methylene)hydrazono)-2-([1,1′-biphenyl]-4-yl)ethyl)thio)-5-nitro-1H-benzo[d]imidazole] | 32.13 ± 0.18 µM | 37.76 ± 0.08 µM | – | – |
| COc1ccc(/C(CSc2nc3cc([N+](=O)[O-])ccc3[nH]2)=N\N=C\c2cc[nH]c2)cc1 [Compound 12] | 23.1 ± 0.35 µM | 27.35 ± 0.06 µM | – | – |
| Cc1ccc(/C(CSc2nc3cc([N+](=O)[O-])ccc3[nH]2)=N\N=C\c2cc[nH]c2)cc1 [Compound 13, 2-(((E)-2-(((E)-(1H-pyrrol-3-yl)methylene)hydrazono)-2-(p-tolyl)ethyl)thio)-5-nitro-1H-benzo[d]imidazole] | 27.08 ± 0.25 µM | 33.3 ± 0.42 µM | – | – |
| COc1ccc2[nH]c(SC/C(=N/N=C/N3CCCCC3)c3ccc(-c4ccccc4)cc3)nc2c1 [Compound 14, 2-(((E)-2-([1,1′-biphenyl]-4-yl)-2-(((E)-piperidin-1-ylmethylene)hydrazono)ethyl)thio)-5-methoxy-1H-benzo[d]imidazole] | 42.01 ± 0.02 µM | 47.03 ± 0.15 µM | – | – |
| COc1ccc2[nH]c(SC/C(=N/N=C/N3CCCCC3)c3ccccc3OC)nc2c1 [Compound 15, 5-methoxy-2-(((E)-2-(2-methoxyphenyl)-2-(((E)-piperidin-1-ylmethylene)hydrazono)ethyl)thio)-1H-benzo[d]imidazole] | 26.03 ± 0.15 µM | 29.11 ± 0.14 µM | – | – |
| COc1ccc(/C(CSc2nc3cc(OC)ccc3[nH]2)=N\N=C\N2CCCCC2)cc1 [Compound 16, 5-methoxy-2-(((E)-2-(4-methoxyphenyl)-2-(((E)-piperidin-1ylmethylene) hydrazono)ethyl)thio)-1H-benzo[d]imidazole] | 28.13 ± 0.23 µM | 30.01 ± 0.23 µM | – | – |
| COc1ccc2[nH]c(SC/C(=N/N=C/N3CCCCC3)c3cccc([N+](=O)[O-])c3)nc2c1 [Compound 17, 5-methoxy-2-(((E)-2-(3-nitrophenyl)-2-(((E)-piperidin-1-ylmethylene)hydrazono)ethyl)thio)-1H-benzo[d]imidazole] | 23.1 ± 0.41 µM | 27.3 ± 0.5 µM | – | – |
| COc1ccc2[nH]c(SC/C(=N/N=C/N3CCCCC3)c3ccc(C)cc3)nc2c1 [Compound 18, 5-methoxy-2-(((E)-2-(((E)-piperidin-1-ylmethylene)hydrazono)-2-(p-tolyl)ethyl)thio)-1H-benzo[d]imidazole] | 36.15 ± 0.03 µM | 39.11 ± 0.13 µM | – | – |
| Cc1ccc(/C(CSc2nc3ccccc3[nH]2)=N\N=C\N2CCCCC2)cc1 [Compound 19, 2-(((E)-2-(((E)-piperidin-1-ylmethylene)hydrazono)-2-(p-tolyl)ethyl)thio)-1H-benzo[d]imidazole] | 33.19 ± 0.09 µM | 36.22 ± 0.11 µM | – | – |
| O=[N+]([O-])c1cccc(/C(CSc2nc3ccccc3[nH]2)=N\N=C\N2CCCCC2)c1 [Compound 20, 2-(((E)-2-(3-nitrophenyl)-2-(((E)-piperidin-1-ylmethylene)hydrazono)ethyl)thio)-1H-benzo[d]imidazole] | 29.04 ± 0.22 µM | 31.25 ± 0.03 µM | – | – |
| COc1ccccc1/C(CSc1nc2ccccc2[nH]1)=N\N=C\N1CCCCC1 [Compound 21, 2-(((E)-2-(2-methoxyphenyl)-2-(((E)-piperidin-1-ylmethylene)hydrazono)ethyl)thio)-1H-benzo[d]imidazole] | 30.1 ± 0.41 µM | 38.02 ± 0.04 µM | – | – |
| COc1ccc(/C(CSc2nc3ccccc3[nH]2)=N\N=C\N2CCCCC2)cc1 [Compound 22, 2-(((E)-2-(4-methoxyphenyl)-2-(((E)-piperidin-1-ylmethylene)hydrazono)ethyl)thio)-1H-benzo[d]imidazole] | 34.02 ± 0.11 µM | 34.31 ± 0.12 µM | – | – |
| O=[N+]([O-])c1ccc2[nH]c(SC/C(=N/N=C/N3CCCCC3)c3ccc(-c4ccccc4)cc3)nc2c1 [Compound 23] | 38.2 ± 0.4 µM | 42.27 ± 0.41 µM | – | – |
| COc1ccc(/C(CSc2nc3cc([N+](=O)[O-])ccc3[nH]2)=N\N=C\N2CCCCC2)cc1 [Compound 24, 2-(((E)-2-(4-methoxyphenyl)-2-(((E)-piperidin-1-ylmethylene)hydrazono)ethyl)thio)-5-nitro-1H-benzo[d]imidazole] | 32.05 ± 0.14 µM | 39.66 ± 0.24 µM | – | – |
| Cc1ccc(/C(CSc2nc3cc([N+](=O)[O-])ccc3[nH]2)=N\N=C\N2CCCCC2)cc1 [Compound 25, 5-nitro-2-(((E)-2-(((E)-piperidin-1-ylmethylene)hydrazono)-2-(p-tolyl)ethyl)thio)-1H-benzo[d]imidazole] | 35.01 ± 0.25 µM | 32.25 ± 0.12 µM | – | – |
